In ChEMBL document CHEMBL4330089, “Exploring structural properties of potent human carbonic anhydrase inhibitors bearing a 4-(cycloalkylamino-1-carbonyl)benzenesulfonamide moiety” (Eur J Med Chem, 2019):
Activity calls are given as the source filed them. The rule behind the calls is not given here.

How the values were obtained:
Carbonic anhydrase 9 = Carbonic anhydrase 9 (Homo sapiens, UniProt Q16790)
Description: Inhibition of human carbonic anhydrase-9 catalytic domain assessed as reduction in CO2 hydration after 15 mins by phenol red dye based stopped flow assay

Mus musculus [1] = experiment: Anticonvulsant activity in ip dosed mouse assessed as reduction in PTZ-induced seizures pretreated for 30 mins followed by PTZ addition; assay type: functional, organism-based
[2] = Toxicity in mouse assessed as sedation at 20 to 30 mg/kg; assay type: organism-based; conditions: in vivo
[3] = Toxicity in mouse in mouse model of PTZ-induced seizures assessed as clonus occurance at 20 to 30 mg/kg, ip pretreated for 30 mins followed by PTZ addition; assay type: organism-based; conditions: in vivo
Mus musculus [4] = species: Mus musculus; experiment: animal or person
Description: Anticonvulsant activity in mouse assessed as reduction in PTZ-induced seizures

Compound | Ki (Carbonic anhydrase 9) | also measured
CC1CCCN(C(=O)c2ccc(S(N)(=O)=O)cc2)C1 (centres undefined) | 2.4 nM | –
NS(=O)(=O)c1ccc(C(=O)N2CCN(c3ccccc3)CC2)cc1 | 4.8 nM | –
NS(=O)(=O)c1ccc(C(=O)N2CCN(Cc3ccc(F)cc3)CC2)cc1 | 45.1 nM | Activity (Mus musculus [1]): Active; Activity [2]: Toxic; Activity [3]: Toxic
CC1(C)O[C@@H]2[C@@H](CO[C@@]3(COS(N)(=O)=O)OC(C)(C)O[C@@H]23)O1 [TOPIRAMATE] | – | ED50 (Mus musculus [4]): 22 mg/kg
CC(=O)C1(c2ccccc2)CCN(C(=O)c2ccc(S(N)(=O)=O)cc2)CC1 | 3.1 nM | –
NS(=O)(=O)c1ccc(C(=O)N2CCN(Cc3ccccc3)CC2)cc1 | 33.1 nM | –
NS(=O)(=O)c1ccc(C(=O)N2CCCCCC2)cc1 | 16.8 nM | –
NS(=O)(=O)c1ccc(C(=O)N2CCC(Cc3ccccc3)CC2)cc1 | 7 nM | –
NS(=O)(=O)c1ccc(C(=O)N2CCN(C(c3ccccc3)c3ccccc3)CC2)cc1 | 28.2 nM | Activity (Mus musculus [1]): Active; Activity [2]: Toxic; Activity [3]: Toxic
NS(=O)(=O)c1ccc(C(=O)N2CCCCC2)cc1 | 3.1 nM | –
CC1CCN(C(=O)c2ccc(S(N)(=O)=O)cc2)CC1 | 3.4 nM | –
NS(=O)(=O)c1ccc(C(=O)N2CCC(O)(c3ccc(Br)cc3)CC2)cc1 | 4.7 nM | Activity (Mus musculus [1]): Active; Activity [2]: Toxic; Activity [3]: Toxic
N#CC1(c2ccccc2)CCN(C(=O)c2ccc(S(N)(=O)=O)cc2)CC1 | 18.4 nM | –
NS(=O)(=O)c1ccc(C(=O)N2CCC(O)(c3ccc(Cl)cc3)CC2)cc1 | 24.9 nM | –
CC1CCCCN1C(=O)c1ccc(S(N)(=O)=O)cc1 (centres undefined) | 2.6 nM | –
NS(=O)(=O)c1ccc(C(=O)N2CCC(c3ccccc3)CC2)cc1 | 3.3 nM | Activity (Mus musculus [1]): Active; Activity [2]: Toxic; Activity [3]: Toxic
NS(=O)(=O)c1ccc(C(=O)N2CCC(O)(c3ccccc3)CC2)cc1 | 22.6 nM | –
